The text below walks through data of patent US6514486B1, “Composition for topical application comprising at least one iminophenol compound” (L'Oreal, priority 1997, dated 2003).

The subject of this experiment is coculture of keratinocytes and of melanocytes. The experiment can be described thus: depigmenting activity test: inhibition of melanogenesis on a coculture of keratinocytes and of melanocytes. It is filed as cell-based. Conditions: for Category (maximum depigmenting activity): inhibition of melanogenesis with respect to the control; for IC50: coculture of keratinocytes and melanocytes, read-out: IC50 (concentration at which 50% inhibition of melanogenesis is observed). On the procedure:
This test corresponds to that described in Patent FR 2,734,825, filed by the Applicant Company, and in the article by R. Schmidt, P. Krien and M. Régnier, Anal. Biochem., 235(2), 113-18 (1996). This test is thus carried out on a coculture of keratinocytes and of melanocytes.
The IC50 value, which corresponds to the micromolar concentration (μM) at which 50% inhibition of melanogenesis is observed, is determined for each compound tested.
Furthermore, a category is given to each of these compounds for their maximum depigmenting activity:
category 1: 10 to 30% inhibition of melanogenesis with respect to the control (same experiment without compound to be tested);
category 2: 30 to 60% inhibition of melanogenesis with respect to the control (same experiment without compound to be tested);
category 3: 60 to 100% inhibition of melanogenesis with respect to the control (same experiment without compound to be tested).

Regarding `O=c1cc(CO)occ1O` [Kojic acid], the IC50 was found to be 500 µM. For the same molecule, the “Category (maximum depigmenting activity)” value (at 500 μM) is on record as 2 at 500 μM (category 2: 30 to 60% inhibition of melanogenesis with respect to the control).

On to `CN(C)C=Nc1ccc(O)cc1` [N′-(4-hydroxyphenyl)-N,N-dimethylformamidine], for which the IC50 is 200 µM. For the same molecule, under “at 50 μM”, the “Category (maximum depigmenting activity)” value is on record as 2 at 50 μM (category 2: 30 to 60% inhibition of melanogenesis with respect to the control).
